The values below come from BindingDB's records for doi:10.3109/14756366.2011.590804 (University of Karachi, 2012).

For orientation: pIC50 means the IC50 on a negative log10 scale, so that one unit is a factor of ten. Low readings indicate a high IC50, high ones a low IC50.

Structures are written as SMILES. pIC50: −log10 of the molar value.

Beta-glucuronidase, sequence (P05804 whole entry): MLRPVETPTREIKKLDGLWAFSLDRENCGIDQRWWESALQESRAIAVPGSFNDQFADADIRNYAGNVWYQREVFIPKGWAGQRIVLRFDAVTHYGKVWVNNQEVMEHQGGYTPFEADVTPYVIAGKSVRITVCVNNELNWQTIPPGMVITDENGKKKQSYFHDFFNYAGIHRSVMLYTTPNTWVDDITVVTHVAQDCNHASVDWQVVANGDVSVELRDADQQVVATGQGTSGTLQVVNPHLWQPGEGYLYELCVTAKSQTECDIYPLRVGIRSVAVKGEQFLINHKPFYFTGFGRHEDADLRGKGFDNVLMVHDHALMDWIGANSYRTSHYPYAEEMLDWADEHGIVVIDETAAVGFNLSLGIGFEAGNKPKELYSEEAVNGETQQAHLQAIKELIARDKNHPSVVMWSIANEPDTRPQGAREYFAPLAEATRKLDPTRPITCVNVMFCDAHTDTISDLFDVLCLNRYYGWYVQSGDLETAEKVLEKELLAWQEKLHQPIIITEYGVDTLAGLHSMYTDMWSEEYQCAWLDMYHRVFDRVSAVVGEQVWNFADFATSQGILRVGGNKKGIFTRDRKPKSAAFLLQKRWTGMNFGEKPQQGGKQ

The test addresses Beta-glucuronidase (Escherichia coli (strain K12), UniProt P05804). In words: β-Glucuronidase Inhibition Assay. The settings on record: pH 7; 37 °C. As for the experimental part: β-Glucuronidase inhibitory activity was evaluated by a biochemical assay, based on the measurement of the absorbance of p-nitrophenol at 405 nm, produced from the enzymatic hydrolysis of chromogenic substrate [Choudhary et al., Steroids, 74:1040-1044; Khan et al., Chem. Pharm. Bull., 50:1443-1446]. The reaction mixture, consisting of 5 μL of test compound solution, 185 μL of 0.1 M acetate buffer (pH 7.0) and 10 μL β-glucuronidase solution, was kept for 30 min at 37°C. The total reaction volume being 250 μL. 50 μL of p-nitrophenyl-β-D-glucuronide was added to each plate. A multiplate reader was used to read the absorbance at 405 nm.
As for `C[C@]12CCC(=O)CC1CC[C@@H]1[C@@H]2CC[C@]2(C)C(=O)CC[C@@H]12` (some centres undefined) [Androstane-3,17-dione (2)], the pIC50 was 3.43.

The compound `C[C@]12CC[C@H](O)C=C1C(=O)C[C@@H]1[C@@H]2CC[C@]2(C)C(=O)CC[C@@H]12` [Androst-4-ene-3β-ol-6,17-dione (7)] had a pIC50 of 3.65.

The compound `C[C@]12CC[C@H]3[C@@H]([C@@H](O)CC4=C[C@@H](O)CC[C@@]43C)[C@@H]1CC[C@@H]2O` [Androst-4-ene-3β,7β,17β-triol (8)] gave a pIC50 of 3.72.

On to `C[C@]12CCC(=O)C=C1CC[C@@H]1[C@@H]2CC[C@]2(C)C(=O)CC[C@@H]12` [Androst-4-en-3,17-dione, 2], for which the pIC50 is 3.37.
